Measurements: US20220144815A1, “1,3,4-OXADIAZOLES AND THEIR DERIVATIVES AS NEW ANTIFUNGAL AGENTS” (Bayer Aktiengesellschaft, priority 2018, published 2022)
Where two headings read alike, the source gives them in different places. Blank lines part the entries; values can stand above or below the compound they belong to.

Columns and labels:
[1] = Log P by HPLC on reversed phase columns, method [a] (EEC directive 79/831 Annex V.A8); type: physicochemical; conditions: reversed phase HPLC column
How it was run: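 Reversed-phase HPLC with LC-UV detection per EEC directive 79/831 Annex V.A8, acidic eluent of 0.1% formic acid in water and acetonitrile, linear gradient 10% to 95% acetonitrile. Log P derived from retention times, calibrated against straight-chain alkan-2-ones (C3–C16) by linear interpolation.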

[2] = tested on: Colletotrichum lindemuthianum; assay: Example B: in vitro cell test, spore germination and mycelium growth in liquid culture; type: cell-based; conditions: 144 h, 20 ppm of tested compound, 6 days incubation, read-out: efficacy (inhibition of fungal growth)
Procedure: • Solvent: dimethyl sulfoxide Culture medium: 14.6 g anhydrous D-glucose (VWR), • 7.1 g mycological peptone (Oxoid), • 1.4 g granulated yeast extract (Merck), QSP 1 liter Inoculum: spore suspension The tested compounds were solubilized in dimethyl sulfoxide and the solution used to prepare the required range of concentrations. The final concentration of dimethyl sulfoxide used in the assay was ≤1%. A spore suspension of Colletotrichum lindemuthianum was prepared and diluted to the desired spore density. The compounds were evaluated for their ability to inhibit spore germination and mycelium growth in liquid culture assay. The compounds were added in the desired concentration to the culture medium with spores. After 6 days incubation, fungi-toxicity of compounds was determined by spectrometric measurement of mycelium growth. Inhibition of fungal growth was determined by comparing the absorbance values in wells containing the tested compounds with the absorbance in control wells without tested compounds.

Alternaria brassicae = assay: Example E: in vivo preventive test (cabbage); conditions: 144 h, 500 ppm of tested compound, preventive spray, evaluated 6 days after inoculation, read-out: efficacy
Procedure: Solvent: 5% by volume of dimethyl sulfoxide • 10% by volume of acetone Emulsifier: 1 μL of Tween® 80 per mg of active ingredient The tested compounds were made soluble and homogenized in a mixture of Dimethyl sulfoxide/Acetone/Tween® 80 and then diluted in water to the desired concentration. The young plants of cabbage were treated by spraying the tested compound prepared as described above. Control plants were treated only with an aqueous solution of Acetone/Dimethyl sulfoxide/Tween® 80. After 24 hours, the plants were contaminated by spraying the leaves with an aqueous suspension of Alternaria brassicae spores. The contaminated cabbage plants were incubated for 6 days at 20° C. and at 100% relative humidity. The test was evaluated 6 days after the inoculation. 0% means an efficacy which corresponds to that of the control plants while an efficacy of 100% means that no disease was observed.

Phakopsora pachyrhizi = assay: Example F: in vivo preventive test (soybeans), DMSO/acetone/Tween 80; conditions: 288 h, 500 ppm of tested compound, preventive spray, soybean, evaluated 12 days after inoculation, read-out: efficacy
Procedure: Solvent: 5% by volume of dimethyl sulfoxide • 10% by volume of acetone
Emulsifier: 1 μL of Tween® 80 per mg of active ingredient
The tested compounds were made soluble and homogenized in a mixture of dimethyl sulfoxide/acetone/Tween® 80 and then diluted in water to the desired concentration.
The young plants of wheat were treated by spraying the tested compound prepared as described above. Control plants were treated only with an aqueous solution of acetone/dimethyl sulfoxide/Tween® 80.
After 24 hours, the plants were contaminated by spraying the leaves with an aqueous suspension of Phakospora pachyrhizi spores. The contaminated soybean plants were incubated for 24 hours at 24° C. and at 100% relative humidity and then for 11 days at 24° C. and at 70-80% relative humidity.
The test was evaluated 12 days after the inoculation. 0% means an efficacy which corresponds to that of the control plants while an efficacy of 100% means that no disease was observed.

[3] = log P determined according to method [a] (HPLC on reversed phase columns), read-out: logP
[4] = method [a], HPLC on reversed phase columns, read-out: logP
[5] = Method A: LC-UV, acidic range, 0.1% formic acid in water and acetonitrile, read-out: Log P

chromatographic logP [1, 3]: 3.57
Structure (SMILES): CC(C)C(Nc1ncc(-c2nnc(C(F)F)o2)cn1)c1ccccc1 (racemic) [I.139, 5-[5-(difluoromethyl)-1,3,4-oxadiazol-2-yl]-N-[(1RS)-2-methyl-1-phenylpropyl]pyrimidin-2-amine]
inhibition of growth at 20 µg/mL [2]: 90 to 100%

chromatographic logP [1, 3]: 2.65
Structure (SMILES): N#CC(Nc1ncc(-c2nnc(C(F)F)o2)cn1)c1ccc(F)cc1 (racemic) [I.141, (2RS)—({5-[5-(difluoromethyl)-1,3,4-oxadiazol-2-yl]pyrimidin-2-yl}amino)(4-fluorophenyl)acetonitrile]
inhibition of growth at 20 µg/mL [2]: 70 to 79%

Structure (SMILES): CSc1ccc(-c2nnc(C(F)F)o2)cc1 [I.002, 2-(difluoromethyl)-5-[4-(methylsulfanyl)phenyl]-1,3,4-oxadiazole]
pest or weed control at 500 µg/mL (Alternaria brassicae): 70 to 79%

Structure (SMILES): FC(F)c1nnc(-c2ccc(-n3ccnn3)cc2)o1 [I.005, 2-(difluoromethyl)-5-[4-(1H-1,2,3-triazol-1-yl)phenyl]-1,3,4-oxadiazole]
pest or weed control at 500 µg/mL (Alternaria brassicae): 90 to 100%

Structure (SMILES): FC(F)c1nnc(-c2ccc(-c3ccccc3)cc2)o1 [I.007, 2-([biphenyl]-4-yl)-5-(difluoromethyl)-1,3,4-oxadiazole]
pest or weed control at 500 µg/mL (Alternaria brassicae): 80 to 89%

Structure (SMILES): FC(F)c1nnc(-c2ccc(Br)cc2)o1 [I.009, 2-(4-bromophenyl)-5-(difluoromethyl)-1,3,4-oxadiazole]
pest or weed control at 500 µg/mL (Phakopsora pachyrhizi): 70 to 79%

Structure (SMILES): FC(F)c1nnc(-c2ccc(Cn3ccnc3)cc2)o1 [I.010, 2-(difluoromethyl)-5-[4-(1H-imidazol-1-ylmethyl)phenyl]-1,3,4-oxadiazole]
pest or weed control at 500 µg/mL (Alternaria brassicae): 90 to 100%

Structure (SMILES): FC(F)c1nnc(-c2ccc(-c3nnc(C(F)F)o3)cc2)o1 [I.019, 2,2′-(1,4-phenylene)bis[5-(difluoromethyl)-1,3,4-oxadiazole]]
pest or weed control at 500 µg/mL (Phakopsora pachyrhizi): 90 to 100%

Structure (SMILES): FC(F)c1nnc(-c2ccc(COc3ccc(Cl)cc3)cc2)o1 [I.024, 2-{4-[(4-chlorophenoxy)methyl]phenyl}-5-(difluoromethyl)-1,3,4-oxadiazole]
pest or weed control at 500 µg/mL (Phakopsora pachyrhizi): 90 to 100%

Structure (SMILES): Fc1ccccc1C1(Nc2ccc(-c3nnc(C(F)F)o3)cc2)CC1 [I.025, 4-[5-(difluoromethyl)-1,3,4-oxadiazol-2-yl]-N-[1-(2-fluorophenyl)cyclopropyl]aniline]
inhibition of growth at 20 µg/mL [2]: 80 to 89%

Structure (SMILES): FC(F)c1nnc(-c2ccc(N3CCCCC3)nc2)o1 [I.040, 5-[5-(difluoromethyl)-1,3,4-oxadiazol-2-yl]-2-(piperidin-1-yl)pyridine]
pest or weed control at 500 µg/mL (Alternaria brassicae): 70 to 79%

Structure (SMILES): Nc1ncc(-c2nnc(C(F)F)o2)cn1 [I.059, 5-[5-(difluoromethyl)-1,3,4-oxadiazol-2-yl]pyrimidin-2-amine]
pest or weed control at 500 µg/mL (Phakopsora pachyrhizi): 90 to 100%

Structure (SMILES): FC(F)c1nnc(-c2cnc(Cl)nc2)o1 [I.061, 2-chloro-5-[5-(difluoromethyl)-1,3,4-oxadiazol-2-yl]pyrimidine]
inhibition of growth at 20 µg/mL [2]: 90 to 100%

Structure (SMILES): C#CCNc1ncc(-c2nnc(C(F)F)o2)cn1 [I.063, 5-[5-(difluoromethyl)-1,3,4-oxadiazol-2-yl]-N-(prop-2-yn-1-yl)pyrimidin-2-amine]
inhibition of growth at 20 µg/mL [2]: 90 to 100%

Structure (SMILES): FC(F)c1nnc(-c2cnc(NCC3CC3)nc2)o1 [I.067, N-(cyclopropylmethyl)-5-[5-(difluoromethyl)-1,3,4-oxadiazol-2-yl]pyrimidin-2-amine]
inhibition of growth at 20 µg/mL [2]: 80 to 89%

Structure (SMILES): FC(F)c1nnc(-c2cnc(-c3ccsc3)nc2)o1 [I.072, 5-[5-(difluoromethyl)-1,3,4-oxadiazol-2-yl]-2-(3-thienyl)pyrimidine]
pest or weed control at 500 µg/mL (Alternaria brassicae): 70 to 79%

Structure (SMILES): FC(F)c1nnc(-c2cnc(CC3CCCCC3)nc2)o1 [I.083, 2-(cyclohexylmethyl)-5-[5-(difluoromethyl)-1,3,4-oxadiazol-2-yl]pyrimidine]
pest or weed control at 500 µg/mL (Phakopsora pachyrhizi): 90 to 100%

Structure (SMILES): CN(c1ccccc1)c1ncc(-c2nnc(C(F)F)o2)cn1 [I.087, 5-[5-(difluoromethyl)-1,3,4-oxadiazol-2-yl]-N-methyl-N-phenylpyrimidin-2-amine]
pest or weed control at 500 µg/mL (Alternaria brassicae): 90 to 100%

Structure (SMILES): FC(F)c1nnc(-c2cnc(NCc3ccccc3)nc2)o1 [I.088, N-benzyl-5-[5-(difluoromethyl)-1,3,4-oxadiazol-2-yl]pyrimidin-2-amine]
pest or weed control at 500 µg/mL (Phakopsora pachyrhizi): 90 to 100%

Structure (SMILES): COc1ccc(-c2ncc(-c3nnc(C(F)F)o3)cn2)cc1 [I.089, 5-[5-(difluoromethyl)-1,3,4-oxadiazol-2-yl]-2-(4-methoxyphenyl)pyrimidine]
inhibition of growth at 20 µg/mL [2]: 90 to 100%

chromatographic logP [1, 3]: 2.64
Structure (SMILES): Fc1ccc(CNc2ncc(-c3nnc(C(F)F)o3)cn2)cc1 [I.112, 5-[5-(difluoromethyl)-1,3,4-oxadiazol-2-yl]-N-(4-fluorobenzyl)pyrimidin-2-amine]
inhibition of growth at 20 µg/mL [2]: 70 to 79%

chromatographic logP [1, 3]: 2.7
Structure (SMILES): Fc1ccc(Cc2ncc(-c3nnc(C(F)F)o3)cn2)c(F)c1 [I.115, 2-(2,4-difluorobenzyl)-5-[5-(difluoromethyl)-1,3,4-oxadiazol-2-yl]pyrimidine]
pest or weed control at 500 µg/mL (Phakopsora pachyrhizi): 70 to 79%

chromatographic logP [1, 3]: 2.33
Structure (SMILES): N#Cc1ccc(C2(Nc3ncc(-c4nnc(C(F)F)o4)cn3)CC2)cc1 [I.152, 4-[1-({5-[5-(difluoromethyl)-1,3,4-oxadiazol-2-yl]pyrimidin-2-yl}amino)cyclopropyl]benzonitrile]
inhibition of growth at 20 µg/mL [2]: 90 to 100%

chromatographic logP [1, 3]: 3.54
Structure (SMILES): FC(F)c1nnc(-c2cnc(NC3(c4ccccc4)CCC3)nc2)s1 [I.159, 5-[5-(difluoromethyl)-1,3,4-thiadiazol-2-yl]-N-(1-phenylcyclobutyl)pyrimidin-2-amine]
inhibition of growth at 20 µg/mL [2]: 90 to 100%

chromatographic logP [1, 3]: 3.31
Structure (SMILES): CON(Cc1ccc(Cl)cc1)c1ncc(-c2nnc(C(F)F)o2)cn1 [I.169, N-(4-chlorobenzyl)-N-{5-[5-(difluoromethyl)-1,3,4-oxadiazol-2-yl]pyrimidin-2-yl}-O-methylhydroxylamine]
inhibition of growth at 20 µg/mL [2]: 80 to 89%

chromatographic logP [1, 4]: 4.12
Structure (SMILES): FC(F)(F)c1nnc(-c2cnc(NC3(c4ccccc4)CCC3)nc2)s1 [I.173, N-(1-phenylcyclobutyl)-5-[5-(trifluoromethyl)-1,3,4-thiadiazol-2-yl]pyrimidin-2-amine]
inhibition of growth at 20 µg/mL [2]: 80 to 89%

chromatographic logP [1, 4]: 4.08
Structure (SMILES): FC(F)(Cl)c1nnc(-c2cnc(NC3(c4ccccc4)CCC3)nc2)o1 [I.176, 5-{5-[chloro(difluoro)methyl]-1,3,4-oxadiazol-2-yl}-N-(1-phenylcyclobutyl)pyrimidin-2-amine]
inhibition of growth at 20 µg/mL [2]: 70 to 79%

chromatographic logP [1, 4]: 4.4
Structure (SMILES): FC(F)c1nnc(-c2cnc(NC3(c4ccc(Cl)cc4)CCCCC3)nc2)o1 [I.182, N-[1-(4-chlorophenyl)cyclohexyl]-5-[5-(difluoromethyl)-1,3,4-oxadiazol-2-yl]pyrimidin-2-amine]
inhibition of growth at 20 µg/mL [2]: 70 to 79%

chromatographic logP [1, 4]: 3.49
Structure (SMILES): FC(F)c1nnc(-c2cnc(NC3(c4ccccc4Br)CC3)nc2)o1 [I.183, N-[1-(2-bromophenyl)cyclopropyl]-5-[5-(difluoromethyl)-1,3,4-oxadiazol-2-yl]pyrimidin-2-amine]
inhibition of growth at 20 µg/mL [2]: 80 to 89%

chromatographic logP [1, 5]: 3.53
Structure (SMILES): CCOC(=O)c1cnc(NC2(c3ccccc3)CCC2)nc1 [ethyl 2-[(1-phenylcyclobutyl)amino]pyrimidine-5-carboxylate]

chromatographic logP [1, 5]: 1.23
Structure (SMILES): CCc1noc(-c2ccc(C(=O)NNC(=O)OC(C)(C)C)cc2)n1 [tert-butyl 2-[4-(3-ethyl-1,2,4-oxadiazol-5-yl)benzoyl]hydrazinecarboxylate]
